Assay results published in article PMC12587545, “Noncytotoxic polymyxin derivatives enhance antibiotic action against multidrug-resistant Gram-negative bacteria” (Antimicrobial Agents and Chemotherapy, 2025).
“And” between values parts separate entries of the source, which are not always exact repeats. Equal values may be shown once.

Columns and labels:
[1] = tested on: MDR Gram-negative bacteria clinical isolates; assay: Checkerboard assay, summary over strains; type: cell-based; details: of all 14 clinical isolates; number (%)
Experimental: (§1) The interaction between the compounds and the antibiotics was evaluated using the fractional inhibitory concentration (FIC) index. FIC indices of ≤0.5 is synergistic, 0.5 < × ≤ 4 is additive, whereas >4 is antagonistic ([34]).
(§2) The antibiotic and compounds were serially diluted 2-fold in CAMHB along the x- and y-axis, respectively, on a 96-well plate that was subsequently incubated with equal volumes of bacterial inoculum overnight at 37°C. Wells containing only media were used as negative controls, and wells containing only bacteria were used as positive controls. Synergy was measured by the FIC index, which is the summation of the individual FICs of the antibiotic and the compound. The FIC is calculated by dividing the MIC of one agent in the presence of another by the MIC of the agent alone. Turbidity was confirmed with a Molecular Devices (United States) EMax Plus microplate reader at a wavelength of 590 nm. The FBS studies were conducted by following a previously published protocol ([29], [50]). The FBS was inactivated by heating at 56°C for 30 min with constant swirling.

A. baumannii = assay: Checkerboard assay (antibiotic potentiation); type: cell-based, Acinetobacter baumannii; set-up: key to FIC index: sum of FICs; ≤0.5 synergistic, 0.5–4 additive, >4 antagonistic; details: for MICantibiotic: antibiotic alone
E. coli = assay: Checkerboard assay (antibiotic potentiation); type: cell-based, Escherichia coli; details: for Interpretation: antibiotic + compound 1; for MICantibiotic + compound: antibiotic MIC with 8 µg/mL (5 µM) compound 1; for MICantibiotic: antibiotic alone; for Potentiation: of antibiotic by 8 µg/mL (5 µM) compound 1
Experimental: as §1
(§3) Synergy was measured by the FIC index, which is the summation of the individual FICs of the antibiotic and the compound. The FIC is calculated by dividing the MIC of one agent in the presence of another by the MIC of the agent alone. […] The FBS studies were conducted by following a previously published protocol ([29], [50]). The FBS was inactivated by heating at 56°C for 30 min with constant swirling.

K. pneumoniae = assay: Checkerboard assay (antibiotic potentiation); type: cell-based, Klebsiella pneumoniae; details: for MICantibiotic + compound: antibiotic MIC with 8 µg/mL (5 µM) compound 1; for MICantibiotic: antibiotic alone
Experimental: as §1, §3

E. cloacae = assay: Checkerboard assay (antibiotic potentiation); type: cell-based, Enterobacter cloacae; details: E. cloacae 121887 (colistin-resistant)
Experimental: The interaction between the compounds and the antibiotics was evaluated using the fractional inhibitory concentration (FIC) index. FIC indices of ≤0.5 is synergistic, 0.5 < × ≤ 4 is additive, whereas >4 is antagonistic ([34]). […] .
The bacterial isolates were acquired from ATCC or the Canadian Ward Surveillance (CANWARD) study ([56]). CANWARD isolates were collected from infected patients admitted to participating medical centers across Canada.
as §2

P. aeruginosa = assay: Checkerboard assay (antibiotic potentiation); type: cell-based, Pseudomonas aeruginosa; details: for MICantibiotic: antibiotic alone
[2] = A. baumannii 110193, antibiotic + compound 1
[3] = A. baumannii ATCC 17978, antibiotic + compound 1
[4] = E. coli 94393 (colistin-resistant)
[5] = E. coli 94474 (colistin-resistant)
[6] = K. pneumoniae 113250 (colistin-resistant)
[7] = P. aeruginosa 262-101856, antibiotic + compound 1
[8] = P. aeruginosa 264-105354, antibiotic + compound 1
[9] = P. aeruginosa 114228 (colistin-resistant), antibiotic + compound 1

CN(C)c1ccc(O)c2c1C[C@H]1C[C@H]3[C@H](N(C)C)C(O)=C(C(N)=O)C(=O)[C@@]3(O)C(O)=C1C2=O [Minocycline]
clinical isolates in which the antibiotic was synergized by compound 1 [1]: 8 (57%) strains
Interpretation (A. baumannii; A. baumannii 92247 (colistin-resistant), antibiotic + compound 1): Additive (0.5 < × ≤ 4 is additive)
MICantibiotic + compound (A. baumannii; A. baumannii 92247 (colistin-resistant), antibiotic MIC with 4 µg/mL (2 µM) compound 1): 0.25 µg/mL
MICantibiotic (A. baumannii; A. baumannii 92247 (colistin-resistant)): 0.25 µg/mL
Potentiation (A. baumannii; A. baumannii 92247 (colistin-resistant), of antibiotic by 4 µg/mL (2 µM) compound 1): 1 fold
FIC index (A. baumannii; [2]): 0.75
Interpretation (A. baumannii; [2]): Additive (0.5 < × ≤ 4 is additive)
MICantibiotic + compound (A. baumannii; A. baumannii 110193, antibiotic MIC with 4 µg/mL (2 µM) compound 1): 2 µg/mL
MICantibiotic (A. baumannii; A. baumannii 110193): 2 µg/mL
Potentiation (A. baumannii; A. baumannii 110193, of antibiotic by 4 µg/mL (2 µM) compound 1): 1 fold
Interpretation (A. baumannii; A. baumannii AB027, antibiotic + compound 1): Additive (0.5 < × ≤ 4 is additive)
MICantibiotic + compound (A. baumannii; A. baumannii AB027, antibiotic MIC with 4 µg/mL (2 µM) compound 1): 1 µg/mL
MICantibiotic (A. baumannii; A. baumannii AB027): 2 µg/mL
Potentiation (A. baumannii; A. baumannii AB027, of antibiotic by 4 µg/mL (2 µM) compound 1): 2 fold
Interpretation (A. baumannii; A. baumannii AB031, antibiotic + compound 1): Additive (0.5 < × ≤ 4 is additive)
MICantibiotic + compound (A. baumannii; A. baumannii AB031, antibiotic MIC with 4 µg/mL (2 µM) compound 1): 1 µg/mL
MICantibiotic (A. baumannii; A. baumannii AB031): 2 µg/mL
Potentiation (A. baumannii; A. baumannii AB031, of antibiotic by 4 µg/mL (2 µM) compound 1): 2 fold
FIC index (A. baumannii; [3]): 0.254
Interpretation (A. baumannii; [3]): Synergy (FIC indices of ≤0.5 is synergistic)
Interpretation (A. baumannii; A. baumannii ATCC 17978, antibiotic + compound 3): Additive (0.5 < × ≤ 4 is additive)
MICantibiotic + compound (A. baumannii; A. baumannii ATCC 17978, antibiotic MIC with 8 µg/mL (5 µM) compound 3): 0.125 µg/mL
MICantibiotic + compound (A. baumannii; A. baumannii ATCC 17978, antibiotic MIC with ¼ MIC (≤5 µM) of compound 1): 0.004 µg/mL
Potentiation (A. baumannii; A. baumannii ATCC 17978, of antibiotic by 8 µg/mL (5 µM) compound 3): 1 fold
Potentiation (A. baumannii; A. baumannii ATCC 17978, of antibiotic by ¼ MIC (≤5 µM) of compound 1): 256 fold
Interpretation (E. coli; [4]): Synergy (FIC indices of ≤0.5 is synergistic)
MICantibiotic + compound (E. coli; [4]): 0.125 µg/mL
MICantibiotic (E. coli; [4]): 0.5 µg/mL
Potentiation (E. coli; [4]): 4 fold
Interpretation (E. coli; [5]): Synergy (FIC indices of ≤0.5 is synergistic)
MICantibiotic + compound (E. coli; [5]): 8 µg/mL
MICantibiotic (E. coli; [5]): 64 µg/mL
Potentiation (E. coli; [5]): 8 fold
MICantibiotic + compound (K. pneumoniae; [6]): >4 µg/mL
MICantibiotic (K. pneumoniae; [6]): >4 µg/mL
Interpretation (K. pneumoniae; K. pneumoniae 116381, antibiotic + compound 1): Synergy (FIC indices of ≤0.5 is synergistic)
MICantibiotic + compound (K. pneumoniae; K. pneumoniae 116381): 4 µg/mL
MICantibiotic (K. pneumoniae; K. pneumoniae 116381): 128 µg/mL
Potentiation (K. pneumoniae; K. pneumoniae 116381, of antibiotic by 8 µg/mL (5 µM) compound 1): 32 fold
Interpretation (E. cloacae; antibiotic + compound 1): Additive (0.5 < × ≤ 4 is additive)
MICantibiotic + compound (E. cloacae; antibiotic MIC with 8 µg/mL (5 µM) compound 1): 0.5 µg/mL
MICantibiotic (E. cloacae; antibiotic alone): 0.5 µg/mL
Potentiation (E. cloacae; of antibiotic by 8 µg/mL (5 µM) compound 1): 1 fold
Interpretation (P. aeruginosa; P. aeruginosa 259-96916, antibiotic + compound 1): Synergy (FIC indices of ≤0.5 is synergistic)
MICantibiotic + compound (P. aeruginosa; P. aeruginosa 259-96916, antibiotic MIC with 8 µg/mL (5 µM) compound 1): 0.5 µg/mL
MICantibiotic (P. aeruginosa; P. aeruginosa 259-96916): 64 µg/mL
Potentiation (P. aeruginosa; P. aeruginosa 259-96916, of antibiotic by 8 µg/mL (5 µM) compound 1): 128 fold
FIC index (P. aeruginosa; [7]): x < 0.078
Interpretation (P. aeruginosa; [7]): Synergy (FIC indices of ≤0.5 is synergistic)
MICantibiotic + compound (P. aeruginosa; P. aeruginosa 262-101856, antibiotic MIC with 8 µg/mL (5 µM) compound 1): 2 µg/mL
MICantibiotic (P. aeruginosa; P. aeruginosa 262-101856): >128 µg/mL
Potentiation (P. aeruginosa; P. aeruginosa 262-101856, of antibiotic by 8 µg/mL (5 µM) compound 1): ≥128-fold
FIC index (P. aeruginosa; [8]): x < 0.070
Interpretation (P. aeruginosa; [8]): Synergy (FIC indices of ≤0.5 is synergistic)
MICantibiotic + compound (P. aeruginosa; P. aeruginosa 264-105354, antibiotic MIC with 8 µg/mL (5 µM) compound 1): 0.5 µg/mL
MICantibiotic (P. aeruginosa; P. aeruginosa 264-105354): >64 µg/mL
Potentiation (P. aeruginosa; P. aeruginosa 264-105354, of antibiotic by 8 µg/mL (5 µM) compound 1): ≥256-fold
Interpretation (P. aeruginosa; P. aeruginosa 101243 (colistin-resistant), antibiotic + compound 1): Synergy (FIC indices of ≤0.5 is synergistic)
MICantibiotic + compound (P. aeruginosa; P. aeruginosa 101243 (colistin-resistant), antibiotic MIC with 8 µg/mL (5 µM) compound 1): 4 µg/mL
MICantibiotic (P. aeruginosa; P. aeruginosa 101243 (colistin-resistant)): 16 µg/mL
Potentiation (P. aeruginosa; P. aeruginosa 101243 (colistin-resistant), of antibiotic by 8 µg/mL (5 µM) compound 1): 4 fold
FIC index (P. aeruginosa; [9]): x < 0.313
Interpretation (P. aeruginosa; [9]): Synergy (FIC indices of ≤0.5 is synergistic)
MICantibiotic + compound (P. aeruginosa; P. aeruginosa 114228 (colistin-resistant), antibiotic MIC with 8 µg/mL (5 µM) compound 1): 16 µg/mL
MICantibiotic (P. aeruginosa; P. aeruginosa 114228 (colistin-resistant)): >64 µg/mL
Potentiation (P. aeruginosa; P. aeruginosa 114228 (colistin-resistant), of antibiotic by 8 µg/mL (5 µM) compound 1): ≥8-fold
Interpretation (P. aeruginosa; P. aeruginosa PAO1, antibiotic + compound 1): Synergy (FIC indices of ≤0.5 is synergistic)
Interpretation (P. aeruginosa; P. aeruginosa PAO1, antibiotic + compound 3): Additive (0.5 < × ≤ 4 is additive)
MICantibiotic + compound (P. aeruginosa; P. aeruginosa PAO1, antibiotic MIC with 8 µg/mL (5 µM) compound 1): 0.5 µg/mL
MICantibiotic + compound (P. aeruginosa; P. aeruginosa PAO1, antibiotic MIC with 8 µg/mL (5 µM) compound 3): 64 µg/mL
MICantibiotic (P. aeruginosa; P. aeruginosa PAO1): 64 µg/mL and 32 µg/mL
Potentiation (P. aeruginosa; P. aeruginosa PAO1, of antibiotic by 8 µg/mL (5 µM) compound 1): 64 fold
Potentiation (P. aeruginosa; P. aeruginosa PAO1, of antibiotic by 8 µg/mL (5 µM) compound 3): 1 fold
